The source of these data is a melting point compilation (Tetko et al.).

Each structure is given as a SMILES string. Non-standard residues stand in square brackets, D forms with d. Residues, ends and D or L forms follow the SMILES beside them. *: point of attachment. pGlu = O=C1CC[C@@H](C(=O)O)N1; Boc = CC(C)(C)OC(=O)*; Bn = c1ccc(C*)cc1; azaGly = NNC(=O)O

Broadly, the melting point is the temperature, or range, at which the solid turns liquid. `CCCCCCOCC1CN(c2cc3c(cc2F)c(=O)c(C(=O)O)cn3CC)CCN1` (stereo not given) yielded a melting point of 121 to 124 °C.
With `Cc1ccc(S(=O)(=O)N2CCN(S(=O)(=O)c3ccc(C)cc3)CCN(S(=O)(=O)c3ccc(C)cc3)CC(C)N(S(=O)(=O)c3ccc(C)cc3)CCN(S(=O)(=O)c3ccc(C)cc3)CC2)cc1` (stereo not given), the melting point was in the range of 245 to 247 °C.
Then `Cc1ccc(S(=O)(=O)NNOC(C)C)cc1`, with 112 to 113 °C; and `COc1cc(OC)c(/C=C/C(c2ccc(OC)c(NCCCC(=O)O)c2)S(=O)(=O)C(/C=C/c2c(OC)cc(OC)cc2OC)c2ccc(OC)c(NCCCC(=O)O)c2)c(OC)c1` (stereo not given), with 86 to 88 °C; and `CCc1nc(C)c(C(=O)OCOC(=O)C(C)(C)C)n1Cc1ccc2oc(-c3ccccc3-c3nnn(C(c4ccccc4)(c4ccccc4)c4ccccc4)n3)c(Br)c2c1`, with 51 to 53 °C.
`CC(NC(=O)C(Cc1ccc(OCc2ccccc2)cc1)NC(=O)C(COCc1ccccc1)NC(=O)C(Cc1c[nH]c2ccccc12)NC(=O)OC(C)(C)C)C(N)=O` (stereo not given) (Boc-WS(Bn)Y(Bn)A-NH2; configuration not given here): the melting point was in the range of 180 to 185 °C.
For the molecule `CS(C)(=O)=NS(=O)(=O)c1cccc(F)c1C#N`, the melting point stood at 184 °C.
Then `CCCCNC1=CCC(C)n2c1ncc(C(=O)O)c2=O` (stereo not given), with 135 to 137 °C.
To `Nc1nc2sc(Cc3ccccc3)cc2c(=O)[nH]1` belongs 294 to 296 °C; to `CCCCCCCCCCOc1cc2c(O)c(C(=O)OCC)cnc2cc1OCC`, 86.5 °C.
To `FC(F)(F)C(F)(F)C(F)(F)C(F)(F)C(F)(F)C(F)(F)C(F)(F)C(F)(F)CCCCCCC1(CCCCCCC(F)(F)C(F)(F)C(F)(F)C(F)(F)C(F)(F)C(F)(F)C(F)(F)C(F)(F)F)c2cc(Br)ccc2-c2ccc(Br)cc21` belongs 82 to 83 °C.
`CCCCCCCCCCCCCCOc1ccc(N(CC(=O)OCc2ccccc2)CC(=O)OCc2ccccc2)cc1OCCCCCCCCCCCCCC` registered a melting point of 52 °C.
On to `CC(=O)OCC(COC(C)=O)NC(=O)c1c(I)c(NC(=O)OCC2CO2)c(I)c(C(=O)NC(COC(C)=O)COC(C)=O)c1I` (stereo not given), for which the melting point was 228 to 230 °C.
To `CCOC(=O)C(C)OC1C(Cl)=C(OC2=C(Cl)C(OC(C)C(=O)OCC)C(c3ccccc3C(F)(F)F)([N+](=O)[O-])C=C2)C=CC1(c1ccccc1C(F)(F)F)[N+](=O)[O-]` (stereo not given) belongs 71 to 74 °C; to `Cc1cc(Cn2nnn(-c3cc(C(F)(F)F)cc(C(F)(F)F)c3)c2=O)ccc1N(C(=O)c1c(I)cccc1C(N)=O)C(C)(C)CS(C)=O` (stereo not given), 165 to 171 °C.
`Cc1ccc2cccc(OCc3c(Cl)ccc(S(=O)(=O)N4CCC[C@H]4C(=O)NC4CCN(C(=O)CN(C=NC(=O)OC(C)(C)C)NC(=O)OC(C)(C)C)CC4)c3Cl)c2n1` gave a melting point of 123 °C.
Regarding `O=C(O)CCC(Cc1cccc(Cl)c1)(C(=O)C=Cc1ccc(Cl)cc1)c1ccccc1` (stereo not given), the melting point fell in the range of 137 to 139 °C.
In turn, `C=Cc1cc(C=Cc2cc(C=Cc3cc(C(C)(C)C)cc(C(C)(C)C)c3)cc(C=Cc3cc(C(C)(C)C)cc(C(C)(C)C)c3)c2)cc(C=Cc2cc(C=Cc3cc(C(C)(C)C)cc(C(C)(C)C)c3)cc(C=Cc3cc(C(C)(C)C)cc(C(C)(C)C)c3)c2)c1` registered a melting point of 272 to 275 °C.
To `CCCCCCCCCCCCSc1nc(N(C2CC(C)(C)NC(C)(C)C2)C2CC(C)(C)NC(C)(C)C2)nc(N(C2CC(C)(C)NC(C)(C)C2)C2CC(C)(C)NC(C)(C)C2)n1` belongs 168 to 170 °C; to `COC(=O)c1ccc([C@H](C)NC(=O)CN2CCN(CC(=O)N[C@@H](C)c3ccccc3)CCN(Cc3ccn(-c4ccc5c(=O)c6cc(C(C)(C)C)ccc6oc5n4)n3)CCN(CC(=O)N[C@@H](C)c3ccccc3)CC2)cc1`, 187 to 189 °C.
In turn, `CCN(CC)CCN=S(=O)(c1ccccc1)c1cccnc1` (stereo not given) displayed a melting point of 130 °C.
Take `CC(COC(=O)CCSCCSCCC(=O)OCC(C)(Cc1cc(C(C)(C)C)c(O)c(C(C)(C)C)c1)Cc1cc(C(C)(C)C)c(O)c(C(C)(C)C)c1)(Cc1cc(C(C)(C)C)c(O)c(C(C)(C)C)c1)Cc1cc(C(C)(C)C)c(O)c(C(C)(C)C)c1`: the melting point lay within 156 to 161 °C.
Then `O=C(O)CN1CCN(CC(=O)O)CCN(CC(=O)Nc2c(I)cc(I)c(C(=O)O)c2I)CCN(CC(=O)O)CC1`, with 235 °C; and `CCCCCCCCNC1(NC(=O)c2ccccc2-c2ccc(CCCCCCCC)cc2)CC(CCCC)=C(NC(=O)c2ccccc2-c2ccc(CCCCCCCC)cc2)C2=C1C(=O)c1ccccc1C2=O` (stereo not given), with 94 to 95 °C.
To `CC(=O)OCC=C(C)CCC=C(C)CCC=C(C)CCC=C(C)CCC=C(C)CCC=C(C)CCC=C(C)CCC=C(C)CCC=C(C)CCC=C(C)CCC=C(C)C` belongs 36 to 37 °C; to `CC(=O)OCC1OC(OC2C(COC(C)=O)OC(OC3C(COC(C)=O)OC(OCCBr)C(N4C(=O)c5ccccc5C4=O)C3OC(C)=O)C(OC(C)=O)C2OC(C)=O)C(OC(C)=O)C(OC(C)=O)C1OC(C)=O` (stereo not given), 227 to 229 °C; to `FC(F)(F)C(F)(F)C(F)(F)C(F)(F)C(F)(F)C(F)(F)c1nc2c(Br)sc(Br)c2nc1C(F)(F)C(F)(F)C(F)(F)C(F)(F)C(F)(F)C(F)(F)F`, 46 to 47 °C.
In turn, `CCCCOC(=O)C(C)(C)Oc1ccc(-c2nc(-c3ccc(OC(C)(C)C(=O)OCCCC)cc3O)nc(-c3ccc(OC(C)(C)C(=O)OCCCC)cc3O)n2)c(O)c1` registered a melting point of 86 to 91 °C.
On to `O=C(OCCCOC(=O)C(OCc1ccc(-c2ccc(Cl)cc2)cc1)(C(F)(F)F)C(F)(F)F)C(OCc1ccc(-c2ccc(Cl)cc2)cc1)(C(F)(F)F)C(F)(F)F`, for which the melting point was in the range of 93 to 94 °C.
Regarding `O=c1[nH]c(=Cc2ccc(OCc3ccccc3)cn2)c(=O)[nH]c1=Cc1ccc(OCc2ccccc2)cn1`, the melting point was in the range of 283 to 285 °C.
Then `BrCCCCCCCCCCCBr`, with -11 °C; and `Cc1cc(CCC(=O)OCC(COC(=O)CCc2cc(C)c(O)c(C(C)(C)C)c2)(COC(=O)CCc2cc(C)c(O)c(C(C)(C)C)c2)COC(=O)CCc2cc(C)c(O)c(C(C)(C)C)c2)cc(C(C)(C)C)c1O`, with 45 to 55 °C.
`CC(C)Cn1c(C(O)c2ccc(Cl)cc2)nc2c(N)nc3ccccc3c21` (stereo not given) had a melting point of 140 to 145 °C.
Then `COc1ccc(C2Sc3ccccc3N(CCN(C)C)C(=O)C2OC(=O)C=CC(=O)OC2C(=O)N(CCN(C)C)c3ccccc3SC2c2ccc(OC)cc2)cc1` (stereo not given), with 112 to 114 °C; and `C=C(C)C(=O)OCCCCCCCCCCCOc1ccc(-c2nc(-c3ccc(OCCCCCCCCCCCOC(=O)C(=C)C)cc3O)nc(-c3ccc(OCCCCCCCCCCCOC(=O)C(=C)C)cc3O)n2)c(O)c1`, with 60.2 °C.
As to `Cc1cc(F)c(-n2nc(C(F)(F)F)nc2NC(=O)C(F)(F)F)cc1C(S(=O)C(c1cc(-n2nc(C(F)(F)F)nc2NC(=O)C(F)(F)F)c(F)cc1C)C(F)(F)F)C(F)(F)F` (stereo not given), the melting point lay within 233 to 237 °C.
Then `CCCCC(C)OC(=O)c1c(I)c(I)c(C(=O)OC(C)CCCC)c(I)c1I` (stereo not given), with 114 to 115 °C; and `O=C(OI(OC(=O)C(F)(F)F)C(F)(F)C(F)(F)C(F)(F)C(F)(F)C(F)(F)C(F)(F)C(F)(F)C(F)(F)C(F)(F)C(F)(F)F)C(F)(F)F`, with 83 to 88 °C.
As for `NC(=O)c1c(I)c(C(=O)N(CC(O)CO)CC(O)CO)c(I)c(N(CC(O)CO)C(=O)CO)c1I` (stereo not given), the melting point was in the range of 195 to 200 °C.
Then `CSc1ccc2c3c(cccc13)C(=O)N(O)C2=O`, with 301 to 306 °C; and `CC(C)C[C@H](NC(=O)[C@@H](Cc1ccccc1)NC(=O)[C@H](Cc1ccc(O)cc1)NC(=O)[C@H](CO)NC(=O)[C@H](Cc1c[nH]c2ccccc12)NC(=O)[C@@H](Cc1ccccc1)NC(=O)[C@@H]1CCC(=O)N1)C(=O)N[C@@H](CCCNC(=N)N)C(=O)N1CCC[C@H]1C(=O)NNC(N)=O` ([pGlu][dF]WSY[dF]LRP[azaGly]-NH2), with 179 to 180 °C; and `CC(C)(C)c1cc(Cc2cc(C(C)(C)C)cc(-n3nc4ccc(S(=O)(=O)c5ccccc5)cc4n3)c2O)c(O)c(-n2nc3ccc(S(=O)(=O)c4ccccc4)cc3n2)c1`, with 224 to 234 °C.
As to `COC(=O)COc1cc(F)ccc1[N+](=O)[O-]`, the melting point lay within 85 to 87 °C.
With `Cc1ccc(N(C)c2cccs2)cc1O`, the melting point fell in the range of 131 to 133 °C.
Turning to `CCCCCCCCCCCCCCCCCCCCCCCC[C@@H](C(=O)O)[C@H](O)CCCCCCCCCCCCCCC[C@@H]1C[C@@H]1CCCCCCCCCCCCCCCCCCC(=O)[C@@H](C)CCCCCCCCCCCCCCCCCC`, the melting point lay in the range of 66 to 68 °C.
